In patent US20250195415A1, “BIODEGRADABLE CONTROLLED RELEASE ANTIVIRAL AGENT IMPLANTS” (Yale University, priority 2022, published 2025):
Like-named read-outs stand apart in the source and are kept apart here.

What was measured:
[1] = In vitro drug release from poly(EB-co-DO) implants with mathematical diffusion model; format: physicochemical; conditions: for Diffusion Coefficient: 28 % Loading, P4 (37k, 20% DO) implants
Protocol: Drug-loaded poly(EB-co-DO) implants (1 cm long, 2.4 mm diameter, 50 mg) were individually incubated in 1 mL of PBS solution (pH=7.4) containing 3% methyl-beta-cyclodextrin (M-β-CD) at 37° C. At selected time points, the buffer solution was completely replaced with fresh solution of the same composition. The collected buffer solutions, in which the implant had been continuously and completely bathed for a period of time, were flash frozen and lyophilized. High-performance liquid chromatography (HPLC) was then used to determine the representative drug loading of implants in each group.
The samples were then centrifuged at 3000 rpm for 5 min to draw out any salts and M-β-CD. The supernatant was passed through 0.22 um syringe filters before being analyzed by HPLC for drug content.
An Agilent column (883995-906, ZORBAX StableBond 300 C8, 4.6×150 mm, 5 μm) and Shimadzu HPLC system (LC-2030C) with a UV-Vis detector was used for drug quantitation. […] Initial solvent B concentration was set at 5% and allowed to increase to 100% by the 5th minute. Flow was maintained for 5 min at this level before dropping to 5% after 12 min, which was maintained until the end of the run at 13 minutes. For analysis of DTG drug release, Solvent A was 0.1% TFA in HPLC grade water, and solvent B was 100% methanol. Initial solvent B concentration was set at 55% and increased to 60% for the 6-7th minute before being brought back down to 55% for the 7-10th minute. All three drugs were detected using a UV detector at a wavelength of 240 nm. […] A volume of 45 μl was injected for each sample run.
Fick's second law of diffusion appropriately models drug transport across polymeric matrixes by proportionally relating the diffusion rate at time, t, to the concentration gradient of drug in the implant, ∂C/∂r. As shown in the equation below (1), a one-dimensional, radial release from our cylindrical implants was adopted, with a constant drug diffusion coefficient, D.
The solution for the above partial differential equation requires specification of a set of initial conditions and boundary conditions. For the initial condition (t=0), a homogenous and uniform concentration of drug throughout the implant was adopted, C=C0. A symmetry boundary condition is further applied at the center of the implant (r=0) as flux across the plane of symmetry is zero, ∂C/∂r=0. Lastly, a perfect-sink boundary condition is applied at the surface of implant (r=R), C=0. […] In vitro release, then, is determined from the mass of drug in the implant at each time point subtracted from initial mass of drug within the implant (Co*V). Lastly, the diffusion coefficient is determined by fitting the cumulative drug release profile to data from in vitro drug release experiments and minimizing root mean squared error (RMSE).

[2] = cited from earlier work
[3] = cited from earlier work; remark: listed apart in the source
[4] = Biocompatibility study, subcutaneous implantation in mice; conditions: mouse, in vivo, sc
Protocol: To examine tissue responses and in vivo degradation of these implants, unloaded 20% DO implants (P4) were used and examined histological sections and polymer properties over a period of 8 months after subcutaneous implantation. Implants of ˜10 to 15 mg were implanted in the subdermal layer of 16 mice. […] implants were extracted every two months; half of the implants were used for histological examination while the other half were used to characterize the polymer using GPC and NMR (FIGS. 15A and 15B). […] This decrease in Mw (73%) during the first four months is slightly less than observed in vitro degradation, where there was an 84% decrease in Mw after four months of incubation in PBS buffer at 37° C. […] This trend can likely be attributed to the highly degradable PDO polymeric segments of the copolymer. In terms of structural integrity of the implants, the implants appeared intact at 8 months and were firm enough to be picked up by tweezers without damage to the implant.

HIV-1 [5] = conditions: week 48, with FTC/TDF or ABC/3TC; cited from earlier work
[6] = Pharmacokinetic studies for implants and NPs in Hu-PBL mice; format: in vivo; conditions: for concentration at 42 d / concentration at 56 d / AUC(0-t): NSG (NOD.Cg-Prkdcscid Il2rgtm1Wjl/SzJ), Hu-PBL, mouse; for concentration at 42 d / concentration at 56 d: plasma; for concentration at 42 d: intraperitoneal, day 42; for AUC(0-t): serum
Protocol: NOD.Cg-Prkdcscid Il2rgtm1 Wjl/SzJ (NSG) mice were purchased from the Jackson Laboratory (Bar Harbor, ME) and bred and maintained at Yale University (New Haven, CT) according to guidelines established by the Institutional Animal Committee. All experiments were performed according to protocols approved by the Institutional Review Board and the Institutional Animal Care and Use Committee of Yale University. NSG-Hu-PBL mice were engrafted. Briefly, 10×10^6 peripheral blood mononuclear cells (PBMC), purified by Ficoll density gradient centrifugation of healthy donor blood (obtained from the New York Blood Bank) were injected intraperitoneally in a 200 μl volume into 6- to 12-week-old NSG mice (Jackson Laboratory), using a 1 cm^3 syringe and 25-gauge needle. Mice were retro-orbitally bled to collect 70-100 μl of blood.
Two NSG mice were injected intraperitoneally (i.p.) with Compound I-NP (190 mg/kg) and EFdA (10 mg/kg) suspended in sterile saline solution. The blood samples were collected at predetermined time points from the ocular venous plexus by retro-orbital venipuncture and used for subsequent HPLC analysis.
Mice were anesthetized by intraperitoneal injection of ketamine (80 mg/kg) and xylazine (12 mg/kg) in PBS (10 ml/kg) based on individual mouse body weight. After anesthetizing, approximately 1-2 cm square of the dorsal skin was shaved using an electric hair clipper, the area was cleaned with ethanol and disinfected with betadine. Using a sterile disposable surgical blade, an incision of 4-5 mm was made through the skin. Gently, 2 cm×3 cm subcutaneous pockets were created with forceps and implants loaded with EFdA and Compound I were co-inserted at the same site. The opening was sutured using absorbable sutures followed by subcutaneous administration of 0.05 mg/kg buprenorphine. The animals were kept warm using the temperature-controlled heating pads until they regained consciousness. Toxicity was evaluated by clinical observations, eageside observations (twice daily), and body weight (at least weekly).
To determine dose-dependent serum agent concentrations, in vivo pharmacokinetics of Compound I and EFdA implants, and Compound I-NP and EFdA-NP were investigated in Hu-PBL mice. The blood samples were collected at predetermined time points from the ocular venous plexus by retro orbital venipuncture and serum was used for subsequent HPLC analysis.

[7] = biological target: T1, human mitochondrial DNA polymerase (Homo sapiens, UniProt P54098); conditions: previous studies; cited from earlier work
T1 sequence (P54098 1-1239): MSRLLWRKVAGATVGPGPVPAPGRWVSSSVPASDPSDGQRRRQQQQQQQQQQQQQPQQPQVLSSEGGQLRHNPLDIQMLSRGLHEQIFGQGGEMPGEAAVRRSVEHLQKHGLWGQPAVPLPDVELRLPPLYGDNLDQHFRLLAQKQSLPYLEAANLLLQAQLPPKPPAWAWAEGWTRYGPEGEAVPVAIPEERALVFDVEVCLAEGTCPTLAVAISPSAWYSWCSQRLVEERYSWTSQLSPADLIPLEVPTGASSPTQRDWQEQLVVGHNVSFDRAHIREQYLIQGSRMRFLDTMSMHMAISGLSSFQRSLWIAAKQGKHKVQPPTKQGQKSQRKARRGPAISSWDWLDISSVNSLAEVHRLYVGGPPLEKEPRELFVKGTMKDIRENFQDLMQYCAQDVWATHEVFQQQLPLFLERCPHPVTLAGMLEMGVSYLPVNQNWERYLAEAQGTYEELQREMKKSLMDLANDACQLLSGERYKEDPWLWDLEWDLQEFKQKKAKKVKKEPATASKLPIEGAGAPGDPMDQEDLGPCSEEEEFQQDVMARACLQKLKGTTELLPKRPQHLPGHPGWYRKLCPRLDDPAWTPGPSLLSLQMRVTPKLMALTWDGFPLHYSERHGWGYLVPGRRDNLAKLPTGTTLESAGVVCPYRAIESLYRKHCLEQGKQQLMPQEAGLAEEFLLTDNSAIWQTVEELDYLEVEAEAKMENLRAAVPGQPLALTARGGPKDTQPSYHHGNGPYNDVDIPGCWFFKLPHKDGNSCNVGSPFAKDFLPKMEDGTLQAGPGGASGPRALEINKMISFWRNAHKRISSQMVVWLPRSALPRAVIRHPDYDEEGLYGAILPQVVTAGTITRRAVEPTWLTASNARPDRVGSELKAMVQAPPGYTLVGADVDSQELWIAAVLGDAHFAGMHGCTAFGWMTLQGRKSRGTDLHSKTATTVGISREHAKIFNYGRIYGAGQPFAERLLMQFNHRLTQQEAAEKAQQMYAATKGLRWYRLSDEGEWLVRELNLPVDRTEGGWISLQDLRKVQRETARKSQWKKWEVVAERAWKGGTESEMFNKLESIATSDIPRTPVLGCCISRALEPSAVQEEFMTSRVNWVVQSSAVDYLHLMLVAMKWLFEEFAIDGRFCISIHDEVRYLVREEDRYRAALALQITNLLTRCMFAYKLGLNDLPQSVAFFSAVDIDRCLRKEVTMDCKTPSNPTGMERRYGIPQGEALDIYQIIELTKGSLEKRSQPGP

[8] = rodents; cited from earlier work
HIV-1 [9] = test: HIV cellular assays (HIV cell culture), antiviral potency

C[C@@H]1C[C@H]2[C@@H]3CCC4=CC(=O)C=C[C@]4(C)[C@@]3(F)[C@@H](O)C[C@]2(C)[C@@]1(O)C(=O)CO [DEX, dexamethasone]
Diffusion Coefficient [1]: 3.7 × 10^−9 cm^2/sec | log P [2]: 1.6-1.9 | diffusion coefficient in porous EVAc implants ([3]; 35% DEX loading): 2.0×10^−10 cm^2/sec | diffusion coefficient in water ([3]; radiolabeled DEX in saline, 37° C.): 5.2×10^−6 cm^2/sec

poly(ethylene brassylate-co-dioxanone) [poly(EB-co-DO) implants]
tolerability after subcutaneous implantation [4]: well tolerated

C[C@@H]1CCO[C@H]2Cn3cc(C(=O)NCc4ccc(F)cc4F)c(=O)c(O)c3C(=O)N12 [DTG, dolutegravir]
Diffusion Coefficient [1]: 1.7 × 10^−9 cm^2/sec | burst release rates compared to DEX ([1]; 28% loading, P4 implants): three-fold reduction in burst release rates | cumulative in vitro release compared to DEX from comparable implants ([1]; 28% loading, P4 implants): slower cumulative release

Cn1c(Cn2ccc(C(F)(F)F)c(Oc3cc(Cl)cc(C#N)c3)c2=O)n[nH]c1=O [doravirine]
patients with plasma HIV-1 RNA of less than 50 copies/mL (HIV-1 [5]): 84%

C#C[C@]1(CO)O[C@@H](n2cnc3c(N)nc(F)nc32)C[C@@H]1O [EFdA, 4′-Ethynyl-2-fluoro-2′-deoxyadenosine]
increase in serum concentration ([6]; NPs, day 14-post infection): 21% | decline in serum concentration after day 21 ([6]; NPs, over the next three weeks): two-fold decline | clearance ([6]; NPs, single i.p. dose, co-administered): 1.2 mL/h/kg | concentration at 42 d ([6]; NPs, read-out: plasma level maintained at end of experiment): ≥ 4000 ng/mL | concentration at 42 d ([6]; NPs, read-out: plasma level maintained at end of experiment (molar)): ≥ 13 µM | concentration at 56 d ([6]; subcutaneous, implants, day 56, read-out: sustained plasma concentration at end of experiment): 7500 ng/mL | concentration at 56 d ([6]; subcutaneous, implants, day 56, read-out: sustained plasma concentration at end of experiment (molar)): 25 µM | AUC(0-t) ([6]; ip, NPs, single i.p. dose, co-administered): 6980 µg·h/mL | AUC(0-t) ([6]; subcutaneous, co-implanted poly(PDL-co-DO) implants, 56 d): 9130 µg·h/mL | serum level fold higher than the cellular EC50 ([6]; implants, day 14): 11,000 fold | fold decrease in serum concentration compared to day 28 ([6]; implants, day 35 post-implantation): 5 fold | plasma concentration fold above the EC90 ([6]; implants, day 56): ~1600 fold | substrate for human mitochondrial DNA polymerase [7]: poor substrate | time of sustained levels of agent from implants [8]: up to 6 months | EC50 (HIV-1 [9]; Human immunodeficiency virus 1, read-out: effective concentrations (EC50)): 1.9 nM | IC90 / EC90 in HIV cell culture (HIV-1 [9]; calculated from EC50 with Hill slope of 1): 17.1 nM
